These results are taken from patent publication US7928107B2, “Quinazolines useful as modulators of ion channels” (Vertex Pharmaceuticals Incorporated, priority 2004, dated 2011).

As a reminder, the IC50 is the concentration at which inhibition is half-maximal.

This experiment has as its target NaV 1.8 channel (Homo sapiens, UniProt Q9Y5Y9). Kind of experiment: Activity against NaV 1.8 channel (optical membrane potential assay). Format: cell-based. Put shortly: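 Cells expressing the NaV of interest loaded with CC2-DMPE (30 min, room temperature) then DiSBAC2(3) with ABSCl and veratridine; compound incubated 20–30 min. Depolarization triggered by sodium add-back and read on VIPR as 460/580 nm FRET ratio (Rf/Ri), normalized to tetracaine and untreated controls.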

Sequence of NaV 1.8 channel (Q9Y5Y9 whole entry): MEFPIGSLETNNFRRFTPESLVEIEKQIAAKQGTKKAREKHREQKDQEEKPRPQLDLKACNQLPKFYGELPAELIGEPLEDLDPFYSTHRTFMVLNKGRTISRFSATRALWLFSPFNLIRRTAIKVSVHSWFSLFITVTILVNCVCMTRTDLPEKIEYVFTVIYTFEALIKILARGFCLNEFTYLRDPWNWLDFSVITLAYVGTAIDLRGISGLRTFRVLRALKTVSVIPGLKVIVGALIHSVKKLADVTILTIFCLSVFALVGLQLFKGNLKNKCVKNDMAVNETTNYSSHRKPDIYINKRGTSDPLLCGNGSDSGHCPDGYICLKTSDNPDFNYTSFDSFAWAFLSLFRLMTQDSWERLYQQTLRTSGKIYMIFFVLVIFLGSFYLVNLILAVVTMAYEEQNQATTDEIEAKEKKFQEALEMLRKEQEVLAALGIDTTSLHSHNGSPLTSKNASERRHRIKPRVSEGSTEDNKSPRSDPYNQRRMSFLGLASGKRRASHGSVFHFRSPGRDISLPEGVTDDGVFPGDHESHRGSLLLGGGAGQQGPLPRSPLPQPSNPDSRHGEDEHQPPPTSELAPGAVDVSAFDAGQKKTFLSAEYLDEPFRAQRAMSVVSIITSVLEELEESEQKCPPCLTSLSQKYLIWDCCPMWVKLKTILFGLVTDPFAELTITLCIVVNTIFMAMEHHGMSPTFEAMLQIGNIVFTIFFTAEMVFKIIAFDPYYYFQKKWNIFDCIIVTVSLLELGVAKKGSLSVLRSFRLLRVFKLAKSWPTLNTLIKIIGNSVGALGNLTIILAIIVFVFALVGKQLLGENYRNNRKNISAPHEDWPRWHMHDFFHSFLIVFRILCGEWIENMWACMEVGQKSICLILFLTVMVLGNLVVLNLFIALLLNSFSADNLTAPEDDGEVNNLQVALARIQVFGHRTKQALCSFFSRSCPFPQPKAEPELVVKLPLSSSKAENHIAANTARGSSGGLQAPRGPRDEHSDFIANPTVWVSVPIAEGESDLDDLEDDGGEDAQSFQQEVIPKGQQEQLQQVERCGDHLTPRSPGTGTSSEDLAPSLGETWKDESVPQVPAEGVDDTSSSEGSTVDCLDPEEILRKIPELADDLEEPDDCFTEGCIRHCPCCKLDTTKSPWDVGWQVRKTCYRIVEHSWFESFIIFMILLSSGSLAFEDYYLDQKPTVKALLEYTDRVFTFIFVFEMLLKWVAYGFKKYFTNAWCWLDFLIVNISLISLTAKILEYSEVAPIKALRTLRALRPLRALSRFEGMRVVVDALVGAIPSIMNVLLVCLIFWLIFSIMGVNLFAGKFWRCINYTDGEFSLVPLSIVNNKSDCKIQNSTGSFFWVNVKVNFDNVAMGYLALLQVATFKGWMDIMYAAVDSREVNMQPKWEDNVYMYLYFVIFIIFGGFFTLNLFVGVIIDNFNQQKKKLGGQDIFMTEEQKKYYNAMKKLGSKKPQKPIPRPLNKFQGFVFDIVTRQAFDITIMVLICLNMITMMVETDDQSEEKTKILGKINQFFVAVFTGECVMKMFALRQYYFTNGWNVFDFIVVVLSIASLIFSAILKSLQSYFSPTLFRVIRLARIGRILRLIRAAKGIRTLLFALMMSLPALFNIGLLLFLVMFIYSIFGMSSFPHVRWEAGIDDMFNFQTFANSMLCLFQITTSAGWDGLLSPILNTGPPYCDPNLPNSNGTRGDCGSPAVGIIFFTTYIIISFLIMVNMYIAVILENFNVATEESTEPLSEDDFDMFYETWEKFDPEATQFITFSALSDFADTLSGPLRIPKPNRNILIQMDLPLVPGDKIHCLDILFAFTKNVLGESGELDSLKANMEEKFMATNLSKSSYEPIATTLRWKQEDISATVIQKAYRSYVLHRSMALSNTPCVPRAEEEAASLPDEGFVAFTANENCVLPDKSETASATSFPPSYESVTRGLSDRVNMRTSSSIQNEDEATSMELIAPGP

Consider `Cc1ccc2c(N3CCN(C(=O)C(O)CC(C)C)CC3)nc(-c3ccccc3O)nc2c1` (centres unmarked) [Example 180], for which the IC50 lay within 2 to 10 µM. Under `CCC(C)(O)CC(=O)N1CCN(c2nc(-c3ccccc3O)nc3cc(C)ccc23)CC1` (centres unmarked) [Example 181] stands above 10 µM; under `Cc1ccc2c(N3CCN(C(=O)O[C@@H]4CCOC4)CC3)nc(-c3ccccc3O)nc2c1` [Example 182], 2 to 10 µM; under `Cc1ccc2c(N3CCN(C(=O)O[C@H]4CCOC4)CC3)nc(-c3ccccc3O)nc2c1` [Example 183], 2 to 10 µM. For `Cc1ccc2c(N3CCN(C(=O)OCC4CCOC4)CC3)nc(-c3ccccc3O)nc2c1` (centres unmarked) [Example 184] the value was 2 to 10 µM; for `Cc1ccc2c(N3CCN(C(=O)OCC4CCCO4)CC3)nc(-c3ccccc3O)nc2c1` (centres unmarked) [Example 185], 2 to 10 µM; for `Cc1ccc2c(N3CCN(C(=O)C(=O)C(C)C)CC3)nc(-c3ccccc3O)nc2c1` [Example 186], below 2 µM. For `Cc1ccc2c(N3CCN(C(=O)[C@H]4CCCO4)CC3)nc(-c3ccccc3O)nc2c1` [Example 187] the value was 2 to 10 µM; for `CC(C)=CC(O)C(=O)N1CCN(c2nc(-c3ccccc3O)nc3cc(C)ccc23)CC1` (centres unmarked) [Example 189], 2 to 10 µM. Turning to `Cc1ccc2c(N3CCN(C(=O)O[C@H]4COC5OCC[C@@H]54)CC3)nc(-c3ccccc3O)nc2c1` (some centres unmarked) [Example 190], the concentration for half-maximal inhibition (IC50) was 2 to 10 µM.

On to `CC(C)(C)C[C@@H](O)C(=O)N1CCN(c2nc(-c3ccccc3O)nc3ccccc23)CC1` [Example 191], for which the IC50 was below 2 µM. Under `O=C(C1CC1)N1CCN(c2nc(-c3ccccc3O)nc3ccc(F)cc23)CC1` [Example 192] stands 2 to 10 µM; under `Cc1ccc2c(N3CCN(C(=O)OCC(C)C)CC3)nc(-c3c(C)cccc3O)nc2c1` [Example 193], below 2 µM. Consider `CCOC(=O)C(=O)N1CCN(c2nc(-c3ccccc3O)nc3cc(C)ccc23)CC1` [Example 195], for which the IC50 is below 2 µM. `Cc1ccc2c(N3CCN(C(=O)C(C)(C)C)CC3)nc(-c3ccccc3O)nc2c1` [Example 196]: the IC50 was below 2 µM. `Cc1ccc2c(N3CCN(C(=O)OCC(C)(C)C)CC3)nc(-c3ccccc3O)nc2c1` [Example 197]: the IC50 was below 2 µM. Regarding `Cc1ccc2c(N3CCCC(C(=O)NCc4cccnc4)C3)nc(-c3ccccc3O)nc2c1` (centres unmarked) [Example 201, 1-(2-(2-Hydroxyphenyl)-7-methylquinazolin-4-yl)-N-((pyridin-3-yl)methyl)piperidine-3-carboxamide], the IC50 was 2 to 10 µM. For `Cc1ccc2c(N3CCC[C@H](NC(=O)O[C@@H]4CCOC4)C3)nc(-c3ccccc3O)nc2c1` [Example 203, (R)-Tetrahydrofuran-3-yl (S)-1-(2-(2-hydroxyphenyl)-7-methylquinazolin-4-yl)piperidin-3-ylcarbamate] the value was above 10 µM; for `Cc1ccc2c(N3CCC[C@H](NC(=O)O[C@H]4CCOC4)C3)nc(-c3ccccc3O)nc2c1` [Example 204, (S)-Tetrahydrofuran-3-yl (S)-1-(2-(2-hydroxyphenyl)-7-methylquinazolin-4-yl)piperidin-3-ylcarbamate], above 10 µM; for `Cc1ccc2c(N3CCC[C@H](NC(=O)[C@H]4CCCO4)C3)nc(-c3ccccc3O)nc2c1` [Example 205, (2R)-Tetrahydro-N—((S)-1-(2-(2-hydroxyphenyl)-7-methylquinazolin-4-yl)piperidin-3-yl)furan-2-carboxamide], above 10 µM. Turning to `Cc1ccc2c(N3CCC[C@@H](NC(=O)[C@H]4CCCO4)C3)nc(-c3ccccc3O)nc2c1` [Example 206, (2R)-Tetrahydro-N—((R)-1-(2-(2-hydroxyphenyl)-7-methylquinazolin-4-yl)piperidin-3-yl)furan-2-carboxamide], the IC50 was in the range of 2 to 10 µM. Under `Cc1ccc2c(N3CCC[C@@H](NC(=O)O[C@@H]4CCOC4)C3)nc(-c3ccccc3O)nc2c1` [Example 207, (R)-Tetrahydrofuran-3-yl (R)-1-(2-(2-hydroxyphenyl)-7-methylquinazolin-4-yl)piperidin-3-ylcarbamate] stands below 2 µM; under `Cc1ccc2c(N3CCC[C@@H](NC(=O)O[C@H]4CCOC4)C3)nc(-c3ccccc3O)nc2c1` [Example 208, (S)-Tetrahydrofuran-3-yl (R)-1-(2-(2-hydroxyphenyl)-7-methylquinazolin-4-yl)piperidin-3-ylcarbamate], below 2 µM. Under `Cc1ccc2c(N3CCCC(CNC(=O)O[C@@H]4CCOC4)C3)nc(-c3ccccc3O)nc2c1` (stereo partly drawn) [Example 210, (R)-Tetrahydrofuran-3-yl (1-(2-(2-hydroxyphenyl)-7-methylquinazolin-4-yl)piperidin-3-yl)methylcarbamate] stands 2 to 10 µM; under `Cc1ccc2c(N3CCCC(CNC(=O)O[C@H]4CCOC4)C3)nc(-c3ccccc3O)nc2c1` (stereo partly drawn) [Example 211, (S)-Tetrahydrofuran-3-yl (1-(2-(2-hydroxyphenyl)-7-methylquinazolin-4-yl)piperidin-3-yl)methylcarbamate], above 10 µM.

As for `Cc1ccc2c(N3CCCC(CNC(=O)C4CC4)C3)nc(-c3ccccc3O)nc2c1` (centres unmarked) [Example 212, N—((1-(2-(2-Hydroxyphenyl)-7-methylquinazolin-4-yl)piperidin-3-yl)methyl)cyclopropanecarboxamide], the half-inhibitory concentration (IC50) was above 10 µM. Under `O=C(NC1CCN(c2nc(-c3c(O)cccc3Cl)nc3ccccc23)CC1)[C@H]1CCCO1` [Example 213, (2R)—N—(1-(2-(2-Chloro-6-hydroxyphenyl)quinazolin-4-yl)piperidin-4-yl)-tetrahydrofuran-2-carboxamide] stands above 10 µM; under `Cc1ccc2c(N3CCC[C@@H](CNC(=O)O[C@@H]4CCOC4)C3)nc(-c3ccccc3O)nc2c1` [Example 214, (R)-Tetrahydrofuran-3-yl ((S)-1-(2-(2-hydroxyphenyl)-7-methylquinazolin-4-yl)piperidin-3-yl)methylcarbamate], above 10 µM; under `Cc1ccc2c(N3CCC[C@@H](CNC(=O)O[C@H]4CCOC4)C3)nc(-c3ccccc3O)nc2c1` [Example 215, (S)-Tetrahydrofuran-3-yl ((S)-1-(2-(2-hydroxyphenyl)-7-methylquinazolin-4-yl)piperidin-3-yl)methylcarbamate], above 10 µM. For `Cc1ccc2c(N3CCC[C@H](CNC(=O)O[C@@H]4CCOC4)C3)nc(-c3ccccc3O)nc2c1` [Example 216, (R)-Tetrahydrofuran-3-yl ((R)-1-(2-(2-hydroxyphenyl)-7-methylquinazolin-4-yl)piperidin-3-yl)methylcarbamate] the value was above 10 µM. Under `Cc1ccc2c(N3CCC[C@H](CNC(=O)O[C@H]4CCOC4)C3)nc(-c3ccccc3O)nc2c1` [Example 217, (S)-Tetrahydrofuran-3-yl ((R)-1-(2-(2-hydroxyphenyl)-7-methylquinazolin-4-yl)piperidin-3-yl)methylcarbamate] stands above 10 µM; under `Cc1ccc2c(N3CCC(NC(=O)[C@H]4CCCO4)CC3)nc(-c3c(C)cccc3O)nc2c1` [Example 218, (2R)-Tetrahydro-N-(1-(2-(2-hydroxy-6-methylphenyl)-7-methylquinazolin-4-yl)piperidin-4-yl)furan-2-carboxamide], 2 to 10 µM.
